Experimental data as given in PMC2962730 (Journal of neurochemistry, 2010).
Changes are numbered by the printed parent chain.

Experiments:
hVAChT wild-type = target: T1, hVAChT wild-type (Homo sapiens, UniProt Q16572); test: [3H]vesamicol saturation binding; settings: WT hVAChT; pH 7.4; per mg postnuclear supernatant
T1 sequence (Q16572 1-532): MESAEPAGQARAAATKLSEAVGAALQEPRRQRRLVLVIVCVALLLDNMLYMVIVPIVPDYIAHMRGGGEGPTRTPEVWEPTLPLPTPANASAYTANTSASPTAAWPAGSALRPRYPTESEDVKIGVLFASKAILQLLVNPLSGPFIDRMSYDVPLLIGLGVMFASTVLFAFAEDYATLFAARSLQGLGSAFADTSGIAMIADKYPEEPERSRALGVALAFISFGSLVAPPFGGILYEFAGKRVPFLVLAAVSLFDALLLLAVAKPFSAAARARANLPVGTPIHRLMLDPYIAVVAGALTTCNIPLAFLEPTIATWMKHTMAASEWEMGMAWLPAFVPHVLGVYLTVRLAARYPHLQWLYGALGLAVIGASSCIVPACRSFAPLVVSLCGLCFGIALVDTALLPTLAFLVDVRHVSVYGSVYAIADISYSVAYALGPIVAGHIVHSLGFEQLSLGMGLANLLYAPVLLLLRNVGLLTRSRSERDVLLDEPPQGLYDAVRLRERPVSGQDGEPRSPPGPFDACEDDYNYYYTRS

hVAChT A321F = target: T2, hVAChT A321F (Homo sapiens, UniProt Q16572, A321F); test: [3H]ACh transport; type: biochemical
T2 sequence (Q16572 1-532 A321F): T1 sequence (Q16572 1-532) with A321F

hVAChT C391A = target: T3, hVAChT C391A (Homo sapiens, UniProt Q16572, C391A); test: ACh equilibrium binding by competition against [3H]vesamicol
T3 sequence (Q16572 1-532 C391A): T1 sequence (Q16572 1-532) with C391A

hVAChT Y60H = target: T4, hVAChT Y60H (Homo sapiens, UniProt Q16572, Y60H); test: as above
T4 sequence (Q16572 1-532 Y60H): T1 sequence (Q16572 1-532) with Y60H

hVAChT M320A = target: T5, hVAChT M320A (Homo sapiens, UniProt Q16572, M320A); test: as above
T5 sequence (Q16572 1-532 M320A): T1 sequence (Q16572 1-532) with M320A

| Vmax/Bmax, ACh transport normalized to Bmax (hVAChT A321F; pH 7.4) [min⁻¹] | Km (hVAChT A321F; read-out: KM, Michaelis-Menten constant for ACh transport, pH 7.4) [µM] | Kd (hVAChT C391A) [mM] | FHA, fraction of the ACh sites that have high affinity (hVAChT C391A; C391A hVAChT, pH 7.4) | Kd (hVAChT Y60H) [mM] | FHA, fraction of the ACh sites that have high affinity (hVAChT Y60H; Y60H hVAChT, pH 7.4) | Kd (hVAChT M320A) [mM] | FHA, fraction of the ACh sites that have high affinity (hVAChT M320A; M320A hVAChT, pH 7.4) | SMILES | Bmax, maximal specific [3H]vesamicol binding (VAChT expression level) (hVAChT wild-type) [pmol/mg] |
| --- | --- | --- | --- | --- | --- | --- | --- | --- | --- |
| – | – | – | – | – | – | – | – | O[C@@H]1CCCC[C@H]1N1CCC(c2ccccc2)CC1 (racemic) [vesamicol, ( )-trans-2-(4-phenylpiperidino)cyclohexanol] | 50 ± 1 |
| 6.0 ± 0.5 | 350 ± 100 | 10 ± 3 | 0.71 ± 0.07 | 11 | 0.82 ± 0.04 | 9.2 ± 0.8 | 0.73 ± 0.11 | CC(=O)OCC[N+](C)(C)C [ACh, acetylcholine] | – |
